Data from PubChem BioAssay (NCI).
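Exposure lasted 48 hours, with cells grown in 96-well plates and compounds tested at five concentrations. TGI: concentration producing complete growth inhibition.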

Tests used:
Experiment in all cases: NCI tumour cell line growth inhibition, 48 h
[1] = system: ACHN renal
[2] = system: SF-295 CNS
[3] = system: U251 CNS
[4] = system: LOX IMVI melanoma
[5] = system: MDA-N
[6] = system: KM12 colon
[7] = system: SK-MEL-28 melanoma
[8] = system: NCI-H23 lung
[9] = system: T-47D breast
[10] = system: SF-268 CNS
[11] = system: PC-3 prostate
[12] = system: SNB-19 CNS
[13] = system: OVCAR-5 ovarian
[14] = system: K-562 leukemia
[15] = system: SK-MEL-2 melanoma
[16] = system: UACC-257 melanoma
[17] = system: BT-549 breast
[18] = system: MOLT-4 leukemia
[19] = system: CCRF-CEM leukemia

Row | SMILES | TGI [1] [µM] | TGI [2] [µM] | TGI [3] [µM] | TGI [4] [µM] | TGI [5] [µM] | TGI [6] [µM] | TGI [7] [µM] | TGI [8] [µM] | TGI [9] [µM] | TGI [10] [µM] | TGI [11] [µM] | TGI [12] [µM] | TGI [13] [µM] | TGI [14] [µM] | TGI [15] [µM] | TGI [16] [µM] | TGI [17] [µM] | TGI [18] [µM] | TGI [19] [µM]
1 | CC(=O)OC/C=C/[C@H](O[Si](C)(C)C(C)(C)C)[C@@H](O)/C=C/COC(C)=O | > 100 | > 100 | > 100 | > 100 | > 100 | > 100 | > 100 | > 100 | > 100 | > 100 | > 100 | > 100 | > 100 | 52.8 | > 100 | > 100 | > 100 | 54.8 | 52
2 | CCCc1cc(=O)oc2c3c(c4c(c12)OC(C)(C)CC4)O[C@@H](C)[C@H](C)[C@H]3O | – | 28.5 | 29.6 | 30 | 16.4 | 29.9 | 42 | 25 | 23.2 | 30.3 | 15.5 | 30.9 | 26.3 | 7.17 | 29.9 | 17.7 | 17.9 | 13.7 | 17.8
3 | CCN1CCC(O)(c2ccc(Oc3ccccc3)cc2)C(C(=O)c2ccc(Oc3ccccc3)cc2)C1 (stereo not drawn) | 29.8 | 27.5 | 24.2 | 16.9 | 26.7 | 18.9 | 26.5 | 27.7 | 28.4 | 35.6 | 27.1 | 32.6 | 31.3 | > 100 | 30.1 | 26.3 | 22.5 | 32.1 | 25.5
4 | COC(=O)C(Cc1ccccc1)NP(=O)(O)OCC1OC(n2cc(Br)c(=O)[nH]c2=O)CC1O (stereo not drawn) | > 100 | > 100 | > 100 | > 100 | > 100 | > 100 | > 100 | > 100 | > 100 | > 100 | > 100 | > 100 | > 100 | > 100 | > 100 | > 100 | > 100 | > 100 | > 100
5 | CCc1cccc(C(C)(C)C)c1NC(=S)N/C=C(/C#N)C(N)=O | > 100 | > 100 | > 100 | > 100 | > 100 | > 100 | > 100 | > 100 | > 100 | > 100 | > 100 | > 100 | > 100 | > 100 | > 100 | > 100 | > 100 | > 100 | > 100
6 | Cc1ccc2nc3c(=O)[nH]c(=O)nc-3n(C)c2c1C | > 100 | > 100 | > 100 | > 100 | > 100 | > 100 | > 100 | > 100 | > 100 | > 100 | > 100 | > 100 | > 100 | > 100 | > 100 | > 100 | > 100 | > 100 | > 100
7 | O=C1C(N2CCN(c3ccccn3)CC2)=C(Cl)C(=O)c2ncccc21 | 4.91 | > 10 | > 10 | 5.35 | 3.08 | > 5.95 | > 7.95 | 3.68 | 4.09 | > 10 | > 10 | > 10 | > 10 | > 10 | 4.67 | > 5.88 | > 10 | 5.99 | 6.28
8 | CC[C@@]1(O)C(=O)OCc2c1cc1n(c2=O)Cc2c-1nc1ccccc1c2/C=N\NC(=O)C(N)CO (stereo partly drawn) | – | > 100 | > 20.9 | 6.15 | > 100 | > 44 | > 100 | 5.38 | > 100 | 7.36 | > 100 | > 100 | > 100 | > 100 | > 100 | > 65.8 | > 100 | 1.58 | > 19.7
9 | C=CCOc1cc(NC(=S)c2ccoc2C)ccc1OC | > 100 | > 100 | > 100 | > 100 | > 100 | > 100 | > 100 | > 100 | > 100 | > 100 | > 100 | > 100 | > 100 | > 100 | > 100 | > 100 | > 100 | > 100 | > 100
10 | O=C(c1ccccc1)n1c(Cc2ccccc2)nc2cc(C34CC5CC(CC(C5)C3)C4)ccc21 | > 100 | > 100 | > 100 | > 100 | > 100 | > 100 | > 100 | > 100 | > 100 | > 100 | > 100 | > 100 | > 100 | > 100 | > 100 | > 100 | > 100 | > 100 | > 100
